# Assays:
# [1] = system: rat; conditions: Subchronic oral toxicity in rodents, sprague dawley, Gavage/Intubation, dose end: 91 day, group: systemic
# [2] = system: rat; conditions: Sub-acute repeat dose toxicity, Oral, Gavage/Intubation, dose end: 8 day, group: systemic
# [3] = system: rat; conditions: Sub-acute repeat dose toxicity; Oral; Gavage/Intubation; dose end: 4 day; group: systemic; systemic / clinical chemistry / [other] / [other] + systemic / clinical chemistry / 5' nucleotidase / 5' nucleotidase + systemic / clinical …
# [4] = system: rat; conditions: Sub-acute repeat dose toxicity, Oral, Gavage/Intubation, dose end: 5 day, group: systemic
# [5] = system: dog; conditions: Subchronic oral toxicity in nonrodent, beagle, Gavage/Intubation, dose end: 93 day
# [6] = system: rat; conditions: Sub-acute repeat dose toxicity, Oral, Gavage/Intubation, dose end: 14 day, group: systemic
# [7] = system: rat; conditions: Sub-acute repeat dose toxicity, Oral, Gavage/Intubation, dose end: 12 day, group: systemic
# [8] = system: rat; conditions: Sub-acute repeat dose toxicity; Oral; Gavage/Intubation; dose end: 5 day; group: systemic; systemic / in life observation / food consumption / food consumption
# [9] = system: rat; conditions: Subchronic oral toxicity in rodents, other, Feed, dose end: 6 month, group: systemic
# [10] = system: rat; conditions: Combined chronic toxicity/carcinogenicity; wistar; Oral; Feed; dose end: 24 month; group: systemic; systemic / organ weight / spleen / absolute + systemic / organ weight / spleen / relative to body weight + systemic / pathology microscopic…
# [11] = system: mouse; conditions: Carcinogenicity; other; Oral; Feed; dose end: 24 month; group: systemic; systemic / hematology / anemia / anemia - nos + systemic / organ weight / liver / absolute + systemic / organ weight / liver / relative to …
# [12] = system: rat; conditions: Multigenerational reproductive toxicity study, sprague dawley, Oral, Feed, dose end: 2 generation
# [13] = system: primate; conditions: Other (NonGuideline or Guideline Not Listed); rhesus; Oral; Gavage/Intubation; dose end: 8 day; group: cannot be grouped; systemic / clinical chemistry / alanine aminotransferase (alt/sgpt) / alanine aminotransferase (alt/sgpt) + systemic / clinical chemistry / …
# [14] = system: rat; conditions: Other (NonGuideline or Guideline Not Listed), sprague dawley, Oral, Gavage/Intubation, dose end: 7 day, group: cannot be grouped
# [15] = system: rat; conditions: Other (NonGuideline or Guideline Not Listed); sprague dawley; Oral; Gavage/Intubation; dose end: 5 day; group: cannot be grouped; systemic / clinical chemistry / alanine aminotransferase (alt/sgpt) / alanine aminotransferase (alt/sgpt) + systemic / clinical chemistry / …
# [16] = system: rat; conditions: Sub-acute repeat dose toxicity; sprague dawley; Oral; Gavage/Intubation; dose end: 16 day; group: systemic; systemic / organ weight / liver / absolute + systemic / organ weight / liver / relative to body weight + systemic / organ weight / liver / …
# [17] = system: rat; conditions: Sub-acute repeat dose toxicity; sprague dawley; Oral; Gavage/Intubation; dose end: 6 day; group: systemic; systemic / clinical chemistry / alanine aminotransferase (alt/sgpt) / alanine aminotransferase (alt/sgpt) + systemic / clinical chemistry / …
# [18] = system: dog; conditions: Chronic toxicity, beagle, Oral, Feed, dose end: 52 week, group: systemic
# [19] = system: rat; conditions: Multigenerational reproductive toxicity study, other, Oral, Feed, dose end: 2 generation
# [20] = system: rat; conditions: Combined chronic toxicity/carcinogenicity, fischer, Oral, Feed, dose end: 2 year, group: systemic
# [21] = system: rat; conditions: Subchronic oral toxicity in rodents, fischer, Feed, dose end: 13 week, group: systemic
# [22] = system: mouse; conditions: Subchronic oral toxicity in rodents, cd1, Feed, dose end: 13 week, group: systemic, systemic / clinical chemistry / alkaline phosphatase (alp/alk) / alkaline phosphatase (alp/alk) + systemic / organ weight / liver / nos + …
# [23] = system: dog; conditions: Subchronic oral toxicity in nonrodent, beagle, Feed, dose end: 13 week, group: systemic
# [24] = systemic / in life observation / clinical signs / abnormal feces + systemic / in life observation / clinical signs / fur (altered appearance…
# [25] = systemic / in life observation / mortality / mortality + systemic / organ weight / testes / absolute + systemic / pathology microscopic / …
# [26] = systemic / clinical chemistry / albumin / albumin + systemic / clinical chemistry / globulins / globulins + systemic / clinical chemistry / …
# [27] = systemic / hematology / neutrophils / neutrophils
# [28] = systemic / hematology / neutrophils / neutrophils + systemic / pathology microscopic / mesentery / inflammation + systemic / pathology …
# [29] = group: maternal, reproductive / reproductive performance / estrous cycle / absent corpora lutea
# [30] = group: systemic, systemic / organ weight / testes / absolute + systemic / pathology microscopic / testes / degeneration
# [31] = group: systemic, systemic / organ weight / testes / absolute + systemic / pathology microscopic / testes / degeneration + systemic / in life observation / …
# [32] = systemic / clinical chemistry / 5' nucleotidase / 5' nucleotidase + systemic / clinical chemistry / glucose / glucose + systemic / clinical …
# [33] = systemic / clinical chemistry / potassium / potassium
# [34] = systemic / hematology / neutrophils / neutrophils + systemic / pathology microscopic / intestine small / inflammation + systemic / pathology…
# [35] = systemic / pathology gross / urinary bladder / lesion(s) (nos) + systemic / pathology microscopic / blood vessel / [other] + systemic / …
# [36] = group: offspring, systemic / in life observation / body weight / offspring (pup) weight
# [37] = group: parental, systemic / in life observation / body weight / body weight + systemic / in life observation / body weight / body weight gain + systemic / in…
# [38] = systemic / clinical chemistry / alkaline phosphatase (alp/alk) / alkaline phosphatase (alp/alk) + systemic / clinical chemistry / glucose / …
# [39] = systemic / clinical chemistry / glucose / glucose + systemic / pathology gross / liver / discolored + systemic / pathology microscopic / …
# [40] = systemic / pathology microscopic / kidney / hyperplasia + systemic / in life observation / body weight / body weight gain + systemic / in …
# [41] = group: offspring, systemic / in life observation / body weight / offspring (pup) weight gain
# [42] = group: parental, systemic / organ weight / liver / relative to body weight
# [43] = group: parental, systemic / pathology microscopic / kidney / crystals + systemic / pathology microscopic / kidney / degeneration + systemic / pathology …
# [44] = systemic / in life observation / body weight / body weight + systemic / in life observation / body weight / body weight gain + systemic / …
# [45] = systemic / clinical chemistry / albumin / albumin + systemic / clinical chemistry / cholesterol / cholesterol + systemic / clinical …
# [46] = systemic / pathology microscopic / kidney / crystals + systemic / pathology microscopic / kidney / hyperplasia + systemic / organ weight / …
structure (smiles),measurement,setting,value
CCc1nn(C2CCCCC2)c2cc(C3(C#N)CCC(C(=O)O)CC3)ccc12 (centres undefined),LEL,[1]; [24],1 mg/kg/day
same,NEL,[1]; [24],< 1 mg/kg/day
same,LOAEL,[1]; [25],> 15 mg/kg/day
same,NOAEL,[1]; [25],≥ 15 mg/kg/day
same,LOAEL,[2]; [26],> 30 mg/kg/day
same,NOAEL,[2]; [26],≥ 30 mg/kg/day
same,LEL,[2]; [27],15 mg/kg/day
same,NEL,[2]; [27],< 15 mg/kg/day
same,LEL,[3],30 mg/kg/day
same,LOAEL,[3],> 30 mg/kg/day
same,NEL,[3],< 30 mg/kg/day
same,NOAEL,[3],≥ 30 mg/kg/day
same,LOAEL,[4]; [26],> 30 mg/kg/day
same,NOAEL,[4]; [26],≥ 30 mg/kg/day
same,LEL,[4]; [28],15 mg/kg/day
same,NEL,[4]; [28],< 15 mg/kg/day
same,LEL,[5]; [29],1 mg/kg/day
same,LOAEL,[5]; [29],> 10 mg/kg/day
same,NEL,[5]; [29],< 1 mg/kg/day
same,NOAEL,[5]; [29],≥ 10 mg/kg/day
same,LEL,[5]; [30],1 mg/kg/day
same,NEL,[5]; [30],< 1 mg/kg/day
same,LOAEL,[5]; [31],> 10 mg/kg/day
same,NOAEL,[5]; [31],≥ 10 mg/kg/day
same,LOAEL,[6]; [32],> 60 mg/kg/day
same,NOAEL,[6]; [32],≥ 60 mg/kg/day
same,LEL,[6]; [33],3 mg/kg/day
same,NEL,[6]; [33],< 3 mg/kg/day
same,LOAEL,[7]; [26],> 30 mg/kg/day
same,NOAEL,[7]; [26],≥ 30 mg/kg/day
same,LEL,[7]; [34],15 mg/kg/day
same,NEL,[7]; [34],< 15 mg/kg/day
same,LEL,[8],1 mg/kg/day
same,LOAEL,[8],> 10 mg/kg/day
same,NEL,[8],< 1 mg/kg/day
same,NOAEL,[8],≥ 10 mg/kg/day
CN(C)C(=O)Nc1ccc(Cl)c(Cl)c1 [Diuron],LEL,[9]; [35],0.3 mg/kg/day
same,NEL,[9]; [35],< 0.3 mg/kg/day
same,NOAEL,[9]; [35],0.7 mg/kg/day
same,LOAEL,[9]; systemic / pathology microscopic / spleen / pigmentation,1.6 mg/kg/day
same,LEL,[10],1 mg/kg/day
same,LOAEL,[10],1 mg/kg/day
same,NEL,[10],< 1 mg/kg/day
same,NOAEL,[10],< 1 mg/kg/day
same,LEL,[11],640 mg/kg/day
same,LOAEL,[11],640 mg/kg/day
same,NEL,[11],50.8 mg/kg/day
same,NOAEL,[11],50.8 mg/kg/day
same,LEL,[12]; [36],139 mg/kg/day
same,LOAEL,[12]; [36],139 mg/kg/day
same,NEL,[12]; [36],18.9 mg/kg/day
same,NOAEL,[12]; [36],18.9 mg/kg/day
same,LEL,[12]; [37],101 mg/kg/day
same,LOAEL,[12]; [37],101 mg/kg/day
same,NEL,[12]; [37],14.8 mg/kg/day
same,NOAEL,[12]; [37],14.8 mg/kg/day
CCn1nc(Cc2ccccc2)cc1C1CCN(C[C@H]2C[C@H](N(C)[C@@H](C(=O)O)C(C)C)C[C@@H]2c2cccc(F)c2)CC1 [MK-578],LEL,[13],200 mg/kg/day
same,LOAEL,[13],> 200 mg/kg/day
same,NEL,[13],< 200 mg/kg/day
same,NOAEL,[13],≥ 200 mg/kg/day
same,LOAEL,[14]; [38],> 250 mg/kg/day
same,NOAEL,[14]; [38],≥ 250 mg/kg/day
same,LEL,[14]; [39],100 mg/kg/day
same,NEL,[14]; [39],< 100 mg/kg/day
same,LEL,[15],250 mg/kg/day
same,LOAEL,[15],> 500 mg/kg/day
same,NEL,[15],< 250 mg/kg/day
same,NOAEL,[15],≥ 500 mg/kg/day
same,LEL,[16],100 mg/kg/day
same,LOAEL,[16],> 100 mg/kg/day
same,NEL,[16],30 mg/kg/day
same,NOAEL,[16],≥ 100 mg/kg/day
same,LEL,[17],500 mg/kg/day
same,LOAEL,[17],> 500 mg/kg/day
same,NEL,[17],< 500 mg/kg/day
same,NOAEL,[17],≥ 500 mg/kg/day
COc1cnc(OC)n2nc(NS(=O)(=O)c3c(OCC(F)F)cccc3C(F)(F)F)nc12 [Penoxsulam],LOAEL,[18]; systemic / pathology microscopic / kidney / hyperplasia,46.2 mg/kg/day
same,LEL,[18]; [40],46.2 mg/kg/day
same,NEL,[18]; [40],14.7 mg/kg/day
same,NOAEL,[18]; [40],14.7 mg/kg/day
same,LEL,"[19]; group: offspring, developmental / developmental landmark / preputial separation / preputial separation",100 mg/kg/day
same,LOAEL,[19]; [41],300 mg/kg/day
same,NOAEL,[19]; [41],100 mg/kg/day
same,NEL,"[19]; group: offspring, systemic / in life observation / body weight / offspring (pup) weight gain + developmental / developmental landmark / preputial separation…",30 mg/kg/day
same,LEL,[19]; [42],30 mg/kg/day
same,NEL,[19]; [42],< 30 mg/kg/day
same,LOAEL,[19]; [43],100 mg/kg/day
same,NOAEL,[19]; [43],30 mg/kg/day
same,LOAEL,[20]; [44],254 mg/kg/day
same,NEL,[20]; [44],5.1 mg/kg/day
same,NOAEL,[20]; [44],50.9 mg/kg/day
same,LEL,[20]; systemic / pathology microscopic / kidney / hyperplasia + systemic / in life observation / clinical signs / perineal soiling,50.9 mg/kg/day
same,LOAEL,[21]; [45],263 mg/kg/day
same,NOAEL,[21]; [45],53.3 mg/kg/day
same,LEL,[21]; systemic / in life observation / clinical signs / perineal soiling,52.3 mg/kg/day
same,NEL,[21]; systemic / in life observation / clinical signs / perineal soiling + systemic / hematology / blood clotting / blood clotting - prothrombin …,5.2 mg/kg/day
same,LEL,[22],511 mg/kg/day
same,LOAEL,[22],> 1030 mg/kg/day
same,NEL,[22],102 mg/kg/day
same,NOAEL,[22],≥ 1030 mg/kg/day
same,LOAEL,[23]; systemic / pathology microscopic / kidney / crystals + systemic / pathology microscopic / kidney / hyperplasia,49.4 mg/kg/day
same,LEL,[23]; [46],49.4 mg/kg/day
same,NEL,[23]; [46],17.8 mg/kg/day
same,NOAEL,[23]; [46],17.8 mg/kg/day
